Values joined by “and” are separate entries in the source; they are usually repeats but may differ in a detail not shown here. Identical values can stand only once.
Columns and labels:
HDAC3 = HDAC3 (Homo sapiens, UniProt O15379); test: HDAC enzyme-based fluorogenic assay, HDAC3; assay type: biochemical
[1] = In vitro metabolic stability in rat liver microsomes; assay type: in vitro ADME; conditions: for half-life: Sprague-Dawley, rat, liver microsomes, pH 7.4; for metabolic stability in RLM, column 0: incubation 0 min; for metabolic stability in RLM, column 0 / metabolic stability in RLM, column 10 / metabolic stability in RLM, column 30 / metabolic stability in RLM, column 45 / metabolic stability in RLM, column 60: 37 °C, NADPH; for metabolic stability in RLM, column 10: incubation 10 min; for metabolic stability in RLM, column 30: incubation 30 min; for metabolic stability in RLM, column 45: incubation 45 min; for metabolic stability in RLM, column 60: incubation 60 min
HDAC6 = target: T1, HDAC6 (Homo sapiens, UniProt Q9UBN7); test: HDAC enzyme-based fluorogenic assay, HDAC6; assay type: biochemical; conditions: for HDAC6 inhibitor rate: final concentration of 2 μM, preliminary screen; for Selectivity Index HDAC1/HDAC6 / Selectivity Index HDAC2/HDAC6 / Selectivity Index HDAC3/HDAC6 / Selectivity Index HDAC8/HDAC6 / Selectivity Index HDAC11/HDAC6: ratio of IC50 values
T1 sequence (Q9UBN7 1-1215): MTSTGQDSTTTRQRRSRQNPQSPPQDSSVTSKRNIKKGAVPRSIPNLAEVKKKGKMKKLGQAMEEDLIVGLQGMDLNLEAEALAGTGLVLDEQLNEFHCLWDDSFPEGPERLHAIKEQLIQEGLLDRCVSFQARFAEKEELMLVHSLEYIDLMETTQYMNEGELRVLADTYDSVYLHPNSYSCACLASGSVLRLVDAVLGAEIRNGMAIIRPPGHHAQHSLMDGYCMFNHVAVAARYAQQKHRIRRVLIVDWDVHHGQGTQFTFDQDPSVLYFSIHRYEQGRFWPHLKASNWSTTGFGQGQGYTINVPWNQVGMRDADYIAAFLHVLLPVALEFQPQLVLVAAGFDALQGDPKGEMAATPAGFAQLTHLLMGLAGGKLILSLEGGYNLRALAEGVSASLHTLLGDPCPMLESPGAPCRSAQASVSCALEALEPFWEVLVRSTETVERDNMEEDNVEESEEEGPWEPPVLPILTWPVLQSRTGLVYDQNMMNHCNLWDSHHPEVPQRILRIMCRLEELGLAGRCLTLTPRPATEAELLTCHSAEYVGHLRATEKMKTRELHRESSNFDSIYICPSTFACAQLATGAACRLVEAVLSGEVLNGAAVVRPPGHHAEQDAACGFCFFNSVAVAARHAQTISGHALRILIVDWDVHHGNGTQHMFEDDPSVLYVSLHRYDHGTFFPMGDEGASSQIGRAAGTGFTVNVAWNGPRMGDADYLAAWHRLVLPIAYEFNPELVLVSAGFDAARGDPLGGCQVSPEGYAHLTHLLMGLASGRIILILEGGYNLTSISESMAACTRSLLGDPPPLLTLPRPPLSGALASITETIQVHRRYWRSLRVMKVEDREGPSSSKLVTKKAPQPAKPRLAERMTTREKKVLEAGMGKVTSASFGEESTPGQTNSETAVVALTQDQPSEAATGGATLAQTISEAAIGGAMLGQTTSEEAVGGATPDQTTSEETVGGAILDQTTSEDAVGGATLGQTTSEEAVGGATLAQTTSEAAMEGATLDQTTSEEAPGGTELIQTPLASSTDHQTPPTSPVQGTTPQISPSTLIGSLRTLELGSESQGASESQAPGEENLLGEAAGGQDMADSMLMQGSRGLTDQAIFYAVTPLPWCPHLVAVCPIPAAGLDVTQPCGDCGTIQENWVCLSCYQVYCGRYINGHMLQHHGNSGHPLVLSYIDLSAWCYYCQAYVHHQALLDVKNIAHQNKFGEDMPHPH

HDAC2 = HDAC2 (Homo sapiens, UniProt Q92769); test: HDAC enzyme-based fluorogenic assay, HDAC2; assay type: biochemical
HDAC2, sequence (Q92769 whole entry): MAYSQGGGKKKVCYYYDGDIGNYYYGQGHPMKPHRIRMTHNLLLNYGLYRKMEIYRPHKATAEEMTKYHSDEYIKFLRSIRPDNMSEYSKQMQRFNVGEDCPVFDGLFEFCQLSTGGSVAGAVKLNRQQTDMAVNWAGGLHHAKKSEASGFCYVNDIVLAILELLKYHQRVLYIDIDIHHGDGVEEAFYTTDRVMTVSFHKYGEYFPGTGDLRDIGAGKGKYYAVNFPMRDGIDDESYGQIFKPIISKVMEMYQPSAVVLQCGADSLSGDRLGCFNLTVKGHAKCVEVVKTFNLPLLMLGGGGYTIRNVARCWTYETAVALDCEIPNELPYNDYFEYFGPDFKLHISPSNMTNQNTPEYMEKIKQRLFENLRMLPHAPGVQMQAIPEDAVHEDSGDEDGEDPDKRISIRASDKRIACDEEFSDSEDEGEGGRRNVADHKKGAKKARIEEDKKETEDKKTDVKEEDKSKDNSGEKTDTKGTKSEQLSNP

[2] = Plasma protein binding by equilibrium dialysis; assay type: in vitro ADME; conditions: rat
MsEH = target: T2, MsEH (Mus musculus, UniProt P34914); test: fluorescent-based sEH assay with PHOME as substrate; assay type: biochemical
T2 sequence (P34914 1-554): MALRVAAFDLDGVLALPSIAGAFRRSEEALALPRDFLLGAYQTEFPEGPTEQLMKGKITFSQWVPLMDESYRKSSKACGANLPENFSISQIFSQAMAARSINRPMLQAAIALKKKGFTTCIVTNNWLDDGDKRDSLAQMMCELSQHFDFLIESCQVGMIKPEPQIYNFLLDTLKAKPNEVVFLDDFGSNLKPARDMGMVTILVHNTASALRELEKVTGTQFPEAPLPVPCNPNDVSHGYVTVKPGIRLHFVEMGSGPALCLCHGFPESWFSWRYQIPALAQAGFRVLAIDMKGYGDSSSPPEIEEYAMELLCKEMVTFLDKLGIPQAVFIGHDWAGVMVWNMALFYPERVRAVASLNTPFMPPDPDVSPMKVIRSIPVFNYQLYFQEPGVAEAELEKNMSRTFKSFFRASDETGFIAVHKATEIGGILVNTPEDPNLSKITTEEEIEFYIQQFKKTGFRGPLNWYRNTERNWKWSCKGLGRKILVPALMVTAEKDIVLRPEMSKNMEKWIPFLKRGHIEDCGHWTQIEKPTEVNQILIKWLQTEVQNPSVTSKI

HsEH = target: T3, HsEH (Homo sapiens, UniProt P34913); test: as above; assay type: biochemical
T3 sequence (P34913 1-555): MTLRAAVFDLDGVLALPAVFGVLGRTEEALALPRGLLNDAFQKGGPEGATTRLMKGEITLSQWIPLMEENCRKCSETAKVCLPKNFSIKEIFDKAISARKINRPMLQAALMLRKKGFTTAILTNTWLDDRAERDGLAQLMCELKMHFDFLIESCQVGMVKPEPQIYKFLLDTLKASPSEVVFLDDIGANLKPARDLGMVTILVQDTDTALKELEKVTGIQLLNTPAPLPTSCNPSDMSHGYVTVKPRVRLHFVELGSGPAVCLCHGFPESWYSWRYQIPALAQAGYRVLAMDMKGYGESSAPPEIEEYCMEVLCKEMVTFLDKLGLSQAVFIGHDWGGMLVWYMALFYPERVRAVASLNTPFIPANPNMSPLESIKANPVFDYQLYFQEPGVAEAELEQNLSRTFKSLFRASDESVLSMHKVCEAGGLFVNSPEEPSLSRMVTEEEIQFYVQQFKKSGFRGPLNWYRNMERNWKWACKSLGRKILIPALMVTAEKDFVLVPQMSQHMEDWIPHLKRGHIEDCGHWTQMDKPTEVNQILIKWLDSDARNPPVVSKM

HDAC1 = HDAC1 (Homo sapiens, UniProt Q13547); test: HDAC enzyme-based fluorogenic assay, HDAC1; assay type: biochemical
HDAC1, sequence (Q13547 whole entry): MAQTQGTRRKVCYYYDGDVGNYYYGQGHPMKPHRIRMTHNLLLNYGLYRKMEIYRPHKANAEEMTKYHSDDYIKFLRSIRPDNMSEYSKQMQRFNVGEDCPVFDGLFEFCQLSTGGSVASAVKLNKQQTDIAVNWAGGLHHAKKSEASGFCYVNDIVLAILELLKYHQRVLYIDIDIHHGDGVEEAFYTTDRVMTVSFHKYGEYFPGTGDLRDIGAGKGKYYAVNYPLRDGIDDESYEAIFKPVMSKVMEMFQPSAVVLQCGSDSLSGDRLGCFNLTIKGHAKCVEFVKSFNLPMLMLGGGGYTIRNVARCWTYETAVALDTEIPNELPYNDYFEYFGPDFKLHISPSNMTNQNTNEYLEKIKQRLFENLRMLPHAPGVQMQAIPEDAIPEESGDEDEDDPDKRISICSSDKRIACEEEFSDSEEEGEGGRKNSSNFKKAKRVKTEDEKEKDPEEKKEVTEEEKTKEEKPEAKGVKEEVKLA

HDAC3, sequence (O15379 whole entry): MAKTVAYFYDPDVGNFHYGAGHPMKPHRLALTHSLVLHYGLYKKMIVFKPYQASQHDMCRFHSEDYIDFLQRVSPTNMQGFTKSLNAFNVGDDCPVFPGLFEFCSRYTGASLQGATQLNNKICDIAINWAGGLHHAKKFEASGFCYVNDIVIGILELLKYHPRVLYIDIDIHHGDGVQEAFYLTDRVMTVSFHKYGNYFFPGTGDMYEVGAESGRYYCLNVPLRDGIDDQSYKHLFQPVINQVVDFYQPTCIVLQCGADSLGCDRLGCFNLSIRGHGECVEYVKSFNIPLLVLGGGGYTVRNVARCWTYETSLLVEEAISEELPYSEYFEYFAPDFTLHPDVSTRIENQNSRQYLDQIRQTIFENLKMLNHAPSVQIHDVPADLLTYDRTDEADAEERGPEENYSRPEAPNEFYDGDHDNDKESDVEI
HDAC3, sequence (Q9Y618 395-489 partner limits assumed): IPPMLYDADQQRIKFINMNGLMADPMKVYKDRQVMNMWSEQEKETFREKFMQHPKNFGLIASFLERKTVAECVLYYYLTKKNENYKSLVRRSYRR

Row | SMILES | IC50 (HDAC3) [nM] | half-life [1] [h] | metabolic stability in RLM, column 0 [1] | metabolic stability in RLM, column 10 [1] | metabolic stability in RLM, column 30 [1] | metabolic stability in RLM, column 45 [1] | metabolic stability in RLM, column 60 [1] | IC50 (HDAC6) [nM] | HDAC6 inhibitor rate (HDAC6) | Selectivity Index HDAC1/HDAC6 (HDAC6) | Selectivity Index HDAC2/HDAC6 (HDAC6) | Selectivity Index HDAC3/HDAC6 (HDAC6) | Selectivity Index HDAC8/HDAC6 (HDAC6) | Selectivity Index HDAC11/HDAC6 (HDAC6) | IC50 (HDAC2) [nM] | fraction unbound [2] | IC50 (MsEH) [nM] | IC50 (HsEH) [nM] | IC50 (HDAC1) [nM]
1 | O=C(CCCCCCNC(=O)[C@H]1CCCN(C(=O)c2ccc(NC(=O)Nc3ccc(Cl)c(F)c3)c(F)c2)C1)NO [Compound 28g, (S)-1-(4-(3-(4-Chloro-3-fluorophenyl)ureido)-3-fluorobenzoyl)-N-(7-(hydroxyamino)-7-oxoheptyl)piperidine-3-carboxamide] | 1280 | 2.28 | 100.00 | 91.61 | 83.80 | 78.76 | 70.64 | 8 | > 91% and 99.78% | 144 | 62 | 160 | 8 | 58 | 492 | 0.113 | 46.8 | 0.9 | 1150
2 | O=C(CCCCCCNC(=O)[C@H]1CCCN(C(=O)c2ccc(NC(=O)Nc3cc(F)cc(F)c3)c(F)c2)C1)NO [Compound 28j, (S)-1-(4-(3-(3,5-Difluorophenyl)ureido)-3-fluorobenzoyl)-N-(7-(hydroxyamino)-7-oxoheptyl)piperidine-3-carboxamide] | 2620 | 0.939 | 100.00 | 85.62 | 73.00 | 59.75 | 50.47 | 8 | > 91% and 98.92% | 129 | 134 | 327 | 9 | 132 | 1070 | 0.119 | 103 | 3.6 | 1030

From paper PMC11412156 (Journal of medicinal chemistry, 2024)
